The source of these data is patent publication US20240116985A1, “STAPLED PEPTIDES AND METHODS THEREOF” (priority 2020, published 2024).

Test [1] has as its target T1, full-length beta-Catenin (Uniprot ID P35222) (Homo sapiens, UniProt P35222).
T1 construct: 10 nM full-length beta-Catenin (Uniprot ID P35222)
T1 sequence (P35222 1-781): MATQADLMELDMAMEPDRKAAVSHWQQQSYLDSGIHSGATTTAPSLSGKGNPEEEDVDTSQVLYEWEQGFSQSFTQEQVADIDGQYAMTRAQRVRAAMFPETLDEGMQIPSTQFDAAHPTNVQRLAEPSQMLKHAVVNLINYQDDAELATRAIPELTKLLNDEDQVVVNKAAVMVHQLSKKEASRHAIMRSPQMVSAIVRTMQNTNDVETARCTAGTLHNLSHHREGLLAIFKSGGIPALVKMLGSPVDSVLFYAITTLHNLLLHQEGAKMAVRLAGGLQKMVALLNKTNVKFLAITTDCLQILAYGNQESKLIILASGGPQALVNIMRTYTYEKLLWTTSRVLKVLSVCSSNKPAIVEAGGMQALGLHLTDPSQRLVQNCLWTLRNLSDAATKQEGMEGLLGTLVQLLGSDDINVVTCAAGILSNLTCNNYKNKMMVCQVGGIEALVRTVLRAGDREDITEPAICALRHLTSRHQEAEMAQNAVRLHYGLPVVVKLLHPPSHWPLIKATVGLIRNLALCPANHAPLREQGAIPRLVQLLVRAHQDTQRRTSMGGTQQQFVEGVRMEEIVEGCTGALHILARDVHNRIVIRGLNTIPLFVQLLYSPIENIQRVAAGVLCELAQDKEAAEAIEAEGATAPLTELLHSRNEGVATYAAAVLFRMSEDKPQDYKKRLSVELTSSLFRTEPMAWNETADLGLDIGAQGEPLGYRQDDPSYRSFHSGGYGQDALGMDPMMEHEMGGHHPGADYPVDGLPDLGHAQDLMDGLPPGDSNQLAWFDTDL
Description: Fluorescence polarization IC50 (beta-catenin / 5FAM-TCF4 10-53 competition). To be noted: fluorescence polarization; read-out: beta-Catenin FP IC50. Type of test: binding.

Test [2] deals with T2, beta-catenin/TCF4 engagement (Homo sapiens, UniProt P35222).
T2 construct: expressed in transfected cells; host or cells: HEK293
T2 sequence (P35222 1-781): T1 sequence (P35222 1-781)
Description: Nano-BRET target engagement assay (B-cat-Halo & TCF4-Luc in HEK293 cells). Type of test: cell-based. As to conditions: absolute IC50; read-out: NanoBRET Abs IC50. For orientation: In BRET a luciferase serves as donor, and the signal depends on an acceptor being close.

Regarding `CC(=O)N1CCC[C@]12CC=CCCCC1(CCCC=CCCCOC(=O)N3CC[C@@](C(=O)N[C@@H](Cc4ccccc4C(F)(F)F)C(=O)N[C@@H](Cc4csc5c(F)cccc45)C(=O)N[C@@H](CCC(N)=O)C(N)=O)(C3)NC(=O)[C@H](CC(C)C)NC(=O)[C@H](Cc3ccccc3)NC(=O)[C@H](C)NC(=O)[C@H](C)NC(=O)[C@H](Cc3cccc(C(=O)O)c3)NC(=O)[C@H](CC(=O)O)NC1=O)NC(=O)[C@H](CC(C)(C)C)NC(=O)[C@H](CC(=O)O)NC2=O` (stereo partly drawn) [I-2488, Ac-PL3-Asp-Npg-B5-Asp-3COOHF-Ala-Ala-Phe-Leu-PyrS2-2F3MeF-7FBztA-Gln-NH2], the values for the IC50 in test [1] and in test [2] were 26 nM and 3600 nM, respectively.
In the same order, the values of `CC(=O)N1CCC[C@]12CC=CCCCC1(CCCC=CCCCOC(=O)N3CC[C@@](C(=O)N[C@@H](Cc4ccccc4C(F)(F)F)C(=O)N[C@@H](Cc4csc5c(F)cccc45)C(=O)N[C@@H](C)C(N)=O)(C3)NC(=O)[C@H](CC(C)C)NC(=O)[C@H](Cc3ccccc3)NC(=O)[C@H](C)NC(=O)[C@H](CCC(N)=O)NC(=O)[C@H](Cc3cccc(C(=O)O)c3)NC(=O)[C@H](CC(=O)O)NC1=O)NC(=O)[C@H](CC(C)(C)C)NC(=O)[C@H](CC(=O)O)NC2=O` (stereo partly drawn) [I-2489, Ac-PL3-Asp-Npg-B5-Asp-3COOHF-Gln-Ala-Phe-Leu-PyrS2-2F3MeF-7FBztA-Ala-NH2] are 29 nM and 7400 nM.
In the same order, the values of `CC(=O)N1CCC[C@]12CC=CCCCC1(CCCC=CCCCOC(=O)N3CC[C@@](C(=O)N[C@@H](Cc4ccccc4C(F)(F)F)C(=O)N[C@@H](Cc4csc5cccc(Cl)c45)C(=O)N[C@@H](CCC(N)=O)C(N)=O)(C3)NC(=O)[C@H](CC(C)C)NC(=O)[C@H](Cc3ccccc3)NC(=O)[C@H](C)NC(=O)[C@H](C)NC(=O)[C@H](Cc3cccc(C(=O)O)c3)NC(=O)[C@H](CC(=O)O)NC1=O)NC(=O)[C@H](CC(C)(C)C)NC(=O)[C@H](CC(=O)O)NC2=O` (stereo partly drawn) [I-2490, Ac-PL3-Asp-Npg-B5-Asp-3COOHF-Ala-Ala-Phe-Leu-PyrS2-2F3MeF-4C1BztA-Gln-NH2] are 39 nM and 6400 nM.
For `CC(=O)N1CCC[C@]12CC=CCCCC1(CCCC=CCCCOC(=O)N3CC[C@@](C(=O)N[C@@H](Cc4ccccc4C(F)(F)F)C(=O)N[C@@H](Cc4csc5cccc(Cl)c45)C(=O)N[C@@H](C)C(N)=O)(C3)NC(=O)[C@H](CC(C)C)NC(=O)[C@H](Cc3ccccc3)NC(=O)[C@H](C)NC(=O)[C@H](CCC(N)=O)NC(=O)[C@H](Cc3cccc(C(=O)O)c3)NC(=O)[C@H](CC(=O)O)NC1=O)NC(=O)[C@H](CC(C)(C)C)NC(=O)[C@H](CC(=O)O)NC2=O` (stereo partly drawn) [I-2491, Ac-PL3-Asp-Npg-B5-Asp-3COOHF-Gln-Ala-Phe-Leu-PyrS2-2F3MeF-4C1BztA-Ala-NH2], the IC50 (in general, the concentration that gives 50% inhibition) was 49 nM in test [1] and 6100 nM in test [2].
In the same order, the values of `CC(=O)N1CCC[C@]12CC=CCCCC1(CCCC=CCCCOC(=O)N3CC[C@@](C(=O)N[C@@H](Cc4ccsc4)C(=O)N[C@@H](Cc4csc5ccccc45)C(=O)N[C@@H](CCC(N)=O)C(N)=O)(C3)NC(=O)[C@H](CC(N)=O)NC(=O)[C@H](Cc3ccccc3)NC(=O)[C@H](C)NC(=O)C3(CCCC3)NC(=O)[C@H]([C@@H](C)O)NC(=O)[C@H](CC(N)=O)NC1=O)NC(=O)[C@H](CC(C)(C)C)NC(=O)[C@H](CC(=O)O)NC2=O` (stereo partly drawn) [I-2493, Ac-PL3-Asp-Npg-B5-Asn-Thr-CyLeu-Ala-Phe-Asn-PyrS2-3Thi-BztA-Gln-NH2] are 267 nM and over 20000 nM.
In the same order, the values of `CC(=O)N1CCC[C@]12CC=CCCCC1(CCCC=CCCCOC(=O)N3CC[C@@](C(=O)N[C@@H](Cc4ccsc4)C(=O)N[C@@H](Cc4csc5ccccc45)C(=O)N[C@@H](CC(=O)N(C)C)C(N)=O)(C3)NC(=O)[C@H](CC(N)=O)NC(=O)[C@H](Cc3ccccc3)NC(=O)[C@H](C)NC(=O)C(C)(C)NC(=O)[C@H]([C@@H](C)O)NC(=O)[C@H](CC(N)=O)NC1=O)NC(=O)[C@H](CC(C)(C)C)NC(=O)[C@H](CC(=O)O)NC2=O` (stereo partly drawn) [I-2494, Ac-PL3-Asp-Npg-B5-Asn-Thr-Aib-Ala-Phe-Asn-PyrS2-3Thi-BztA-Me2Asn-NH2] are 102 nM and over 20000 nM.
In the same order, the values of `CNC(=O)C[C@H](NC(=O)[C@H](Cc1csc2ccccc12)NC(=O)[C@H](Cc1ccsc1)NC(=O)[C@]12CCN(C1)C(=O)OCCCC=CCCCC1(CCCC=CC[C@]3(CCCN3C(C)=O)C(=O)N[C@@H](CC(=O)O)C(=O)N[C@@H](CC(C)(C)C)C(=O)N1)C(=O)N[C@@H](CC(N)=O)C(=O)N[C@@H]([C@@H](C)O)C(=O)NC(C)(C)C(=O)N[C@@H](C)C(=O)N[C@@H](Cc1ccccc1)C(=O)N[C@@H](CC(N)=O)C(=O)N2)C(N)=O` (stereo partly drawn) [I-2495, Ac-PL3-Asp-Npg-B5-Asn-Thr-Aib-Ala-Phe-Asn-PyrS2-3Thi-BztA-MeAsn-NH2] are 95 nM and over 20000 nM.
In the case of `CC(=O)N1CCC[C@]12CC=CCCCC1(CCCC=CCCCOC(=O)N3CC[C@@](C(=O)N[C@@H](Cc4ccsc4)C(=O)N[C@@H](Cc4csc5ccccc45)C(=O)N[C@@H](CC(N)=O)C(N)=O)(C3)NC(=O)[C@H](CC(=O)N(C)C)NC(=O)[C@H](Cc3ccccc3)NC(=O)[C@H](C)NC(=O)C(C)(C)NC(=O)[C@H]([C@@H](C)O)NC(=O)[C@H](CC(N)=O)NC1=O)NC(=O)[C@H](CC(C)(C)C)NC(=O)[C@H](CC(=O)O)NC2=O` (stereo partly drawn) [I-2496, Ac-PL3-Asp-Npg-B5-Asn-Thr-Aib-Ala-Phe-Me2Asn-PyrS2-3Thi-BztA-Asn-NH2], the results for the IC50 in test [1] and in test [2] were 106 nM and over 20000 nM, respectively.
Regarding `CNC(=O)C[C@@H]1NC(=O)[C@H](Cc2ccccc2)NC(=O)[C@H](C)NC(=O)C(C)(C)NC(=O)[C@H]([C@@H](C)O)NC(=O)[C@H](CC(N)=O)NC(=O)C2(CCCC=CCCCOC(=O)N3CC[C@@](C(=O)N[C@@H](Cc4ccsc4)C(=O)N[C@@H](Cc4csc5ccccc45)C(=O)N[C@@H](CC(N)=O)C(N)=O)(C3)NC1=O)CCCC=CC[C@]1(CCCN1C(C)=O)C(=O)N[C@@H](CC(=O)O)C(=O)N[C@@H](CC(C)(C)C)C(=O)N2` (stereo partly drawn) [I-2497, Ac-PL3-Asp-Npg-B5-Asn-Thr-Aib-Ala-Phe-MeAsn-PyrS2-3Thi-BztA-Asn-NH2], the IC50 in test [1] was 105 nM; in test [2], over 20000 nM.
In the same order, the values of `CC(=O)N1CCC[C@]12CC=CCCCC1(CCCC=CCCCOC(=O)N3CC[C@@](C(=O)N[C@@H](Cc4ccccc4)C(=O)N[C@@H](Cc4csc5ccccc45)C(=O)N[C@@H](CC(=O)N4CCOCC4)C(N)=O)(C3)NC(=O)[C@H](CC(C)C)NC(=O)[C@H](Cc3ccccc3)NC(=O)[C@H](C)NC(=O)[C@H](CCC(=O)N(C)C)NC(=O)[C@H](CCC(N)=O)NC(=O)[C@H](CC(=O)O)NC1=O)NC(=O)[C@H](CC1CCCCC1)NC(=O)[C@H](CC(N)=O)NC2=O` (stereo partly drawn) [I-2501, Ac-PL3-Asn-Cha-B5-Asp-Gln-Me2Gln-Ala-Phe-Leu-PyrS2-Phe-BztA-MorphAsn-NH2] are 154 nM and over 20000 nM.
In the same order, the values of `CNC(=O)CC[C@@H]1NC(=O)[C@H](CCC(N)=O)NC(=O)[C@H](CC(=O)O)NC(=O)C2(CCCC=CCCCOC(=O)N3CC[C@@](C(=O)N[C@@H](Cc4ccccc4)C(=O)N[C@@H](Cc4csc5ccccc45)C(=O)N[C@@H](CC(=O)N4CCOCC4)C(N)=O)(C3)NC(=O)[C@H](CC(C)C)NC(=O)[C@H](Cc3ccccc3)NC(=O)[C@H](C)NC1=O)CCCC=CC[C@]1(CCCN1C(C)=O)C(=O)N[C@@H](CC(N)=O)C(=O)N[C@@H](CC1CCCCC1)C(=O)N2` (stereo partly drawn) [I-2502, Ac-PL3-Asn-Cha-B5-Asp-Gln-MeGln-Ala-Phe-Leu-PyrS2-Phe-BztA-MorphAsn-NH2] are 214 nM and over 20000 nM.
In the same order, the values of `CC(=O)N1CCC[C@]12CC=CCCCC1(CCCC=CCCCOC(=O)N3CC[C@@](C(=O)N[C@@H](Cc4ccccc4)C(=O)N[C@@H](Cc4csc5ccccc45)C(=O)N[C@@H](CC(=O)N4CCOCC4)C(N)=O)(C3)NC(=O)[C@H](CC(C)C)NC(=O)[C@H](Cc3ccccc3)NC(=O)[C@H](C)NC(=O)[C@H](CCC(N)=O)NC(=O)[C@H](CCC(N)=O)NC(=O)[C@H](CC(=O)O)NC1=O)NC(=O)[C@H](CC1CCCCC1)NC(=O)[C@H](CC(N)=O)NC2=O` (stereo partly drawn) [I-2504, Ac-PL3-Asn-Cha-B5-Asp-Gln-Gln-Ala-Phe-Leu-PyrS2-Phe-BztA-MorphAsn-NH2] are 210 nM and over 20000 nM.
For `CC(=O)N1CCC[C@]12CC=CCCCCC1(CCCCC=CCCOC(=O)N3CC[C@@](C(=O)N[C@@H](Cc4ccccc4C(F)(F)F)C(=O)N[C@@H](Cc4csc5ccccc45)C(=O)N[C@@H](CCC(N)=O)C(N)=O)(C3)NC(=O)[C@H](CC(C)C)NC(=O)[C@H](Cc3ccccc3)NC(=O)[C@H](C)NC(=O)[C@H](C)NC(=O)[C@H](Cc3cccc(C(=O)O)c3)NC(=O)[C@H](CC(=O)O)NC1=O)NC(=O)[C@H](CC(C)(C)C)NC(=O)[C@H](CC(=O)O)NC2=O` (stereo partly drawn) [I-2508, Ac-PL3-Asp-Npg-B6-Asp-3COOHF-Ala-Ala-Phe-Leu-PyrS1-2F3MeF-BztA-Gln-NH2], the values for the IC50 in test [1] and in test [2] were 152 nM and 27300 nM, respectively.
